Assay results taken from the supplement of paper PMC4723716.
Counter-ions that a name gives are not always drawn.

System: Plasmodium falciparum NF54 gametocytes
Settings: 384, incubation time: 72 h
Method in brief: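 In 384-well plates, P. falciparum NF54 gametocytes at each stage (I–V) were treated in duplicate with compound dilutions for 72 hr at 37°C under low oxygen, using either a serum-free one-step or a serum-containing two-step assay. Surviving gametocytes were stained with MitoTracker Red CMXRos, counted by high-content imaging and normalised to the plate mean of vehicle wells. A standard logistic regression model was used to fit IC50.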

[1] = gametocyte stage: Stage I Dose Response IC50 (µM), assay protocol: TSSA
[2] = gametocyte stage: Stage II Dose Response IC50 (µM), assay protocol: TSSA
[3] = gametocyte stage: Stage III Dose Response IC50 (µM), assay protocol: TSSA
[4] = gametocyte stage: Stage IV Dose Response IC50 (µM), assay protocol: TSSA
[5] = gametocyte stage: Stage V Dose Response IC50 (µM), assay protocol: TSSA
[6] = gametocyte stage: Stage I Dose Response IC50 (µM), assay protocol: SaLSSA
[7] = gametocyte stage: Stage II Dose Response IC50 (µM), assay protocol: SaLSSA
[8] = gametocyte stage: Stage III Dose Response IC50 (µM), assay protocol: SaLSSA
[9] = gametocyte stage: Stage IV Dose Response IC50 (µM), assay protocol: SaLSSA
[10] = gametocyte stage: Stage V Dose Response IC50 (µM), assay protocol: SaLSSA

Row | Structure (SMILES) | IC50 of gametocyte viability [1] [µM] | IC50 of gametocyte viability [2] [µM] | IC50 of gametocyte viability [3] [µM] | IC50 of gametocyte viability [4] [µM] | IC50 of gametocyte viability [5] [µM] | IC50 of gametocyte viability [6] [µM] | IC50 of gametocyte viability [7] [µM] | IC50 of gametocyte viability [8] [µM] | IC50 of gametocyte viability [9] [µM] | IC50 of gametocyte viability [10] [µM]
1 | COc1cc(C)c2c(Oc3cccc(C(F)(F)F)c3)c(OC)cc(NC(C)CCCN)c2n1 (stereo not given) [Tafenoquine] [listing 1 of 2 here] | 5.3 | 7.55 | 7.03 | 6.87 | 0.919 |  |  |  |  | 
2 | COc1cc(C)c2c(Oc3cccc(C(F)(F)F)c3)c(OC)cc(NC(C)CCCN)c2n1 (stereo not given) [Tafenoquine] [listing 2 of 2 here] |  |  |  |  |  | 4.56 | 3.68 | 3.74 | 3.48 | 2.45
3 | CN(C)[C@@H]1C(O)=C(C(N)=O)C(=O)[C@@]2(O)C(O)=C3C(=O)c4c(O)cccc4[C@@](C)(O)[C@H]3C[C@@H]12 [Tetracycline] |  |  |  |  |  | > 12.5 | > 12.5 | > 12.5 | > 12.5 | > 12.5
4 | C=C(NC(=O)C(=C)NC(=O)c1csc(C2=N[C@@H]3c4csc(n4)[C@H]4NC(=O)c5csc(n5)[C@H]([C@](C)(O)[C@@H](C)O)NC(=O)[C@H]5CSC(=N5)/C(=C/C)NC(=O)[C@H]([C@@H](C)O)NC(=O)c5csc(n5)[C@]3(CC2)NC(=O)[C@H](C)NC(=O)C(=C)NC(=O)[C@H](C)NC(=O)[C@H]([C@@H](C)CC)N[C@@H]2C=Cc3c([C@H](C)O)cc(nc3[C@H]2O)C(=O)O[C@@H]4C)n1)C(N)=O [Thiostrepton] | 4.04 | 4.81 | 3.75 | 3.41 | 3.42 |  |  |  |  | 
5 | COc1cc(Cc2cnc(N)nc2N)cc(OC)c1OC [Trimethoprim] |  |  |  |  |  | > 12.5 | > 12.5 | > 12.5 | > 12.5 | > 12.5
6 | CCC[C@@H]1C[C@@H](C(=O)N[C@@H]([C@H]2O[C@H](SC)[C@H](O)[C@@H](O)[C@H]2O)[C@H](C)Cl)N(C)C1 [clindamycin] |  |  |  |  |  | > 12.5 | > 12.5 | > 12.5 | > 12.5 | > 12.5
7 | C[C@]12CC[C@H](OS(=O)(=O)O)CC1=CC[C@@H]1[C@@H]2CC[C@]2(C)C(=O)CC[C@@H]12 [dehydroepiandrosterone sulphate] |  |  |  |  |  | > 12.5 | > 12.5 | > 12.5 | > 12.5 | > 12.5
8 | O=CN(O)CCCP(=O)([O-])O [fosmidomycin mono sodium] |  |  |  |  |  | > 12.5 | > 12.5 | > 12.5 | > 12.5 | > 12.5
9 | CC(C)NC(=N)NC(=N)Nc1ccc(Cl)cc1 [proguanil hydrochloride/1.14] |  |  |  |  |  | > 12.5 | > 12.5 | > 12.5 | > 12.5 | > 12.5
10 | CCc1nc(N)nc(N)c1-c1ccc(Cl)cc1 [pyrimethamine] |  |  |  |  |  | > 12.5 | > 12.5 | > 12.5 | > 12.5 | > 12.5
